In article PMC9885530, “Identification of Natural Products Inhibiting SARS-CoV-2 by Targeting Viral Proteases: A Combined in Silico and in Vitro Approach” (Journal of Natural Products, 2023):
Values joined by “and” are separate entries in the source; they are usually repeats but may differ in a detail not shown here. Equal entries are not always repeated. Where two headings read alike, the source gives them in different places.

Legend:
SARS-CoV-2 = assay: Antiviral assay in Calu-3 cells (spike staining); format: cell-based
in vitro = conditions: human
SARS-CoV-2 M^pro = SARS-CoV-2 M^pro (Severe acute respiratory syndrome coronavirus 2, UniProt P0DTD1); assay: biochemical; format: biochemical; conditions: buffer with 5 mM DTT; for inhibition at 20 µM: 20 μM compound, for values marked a the relative standard deviation of 6% applies, read-out: SARS-CoV-2 M^pro enzyme inhibition (%) 20 μM; for inhibition at 100 µM: 100 μM compound, read-out: SARS-CoV-2 M^pro enzyme inhibition (%) 100 μM
SARS-CoV-2 PLpro [1] = molecular target: T1, SARS-CoV-2 PLpro (Severe acute respiratory syndrome coronavirus 2, UniProt P0DTD1); assay: biochemical; parameters: papain-like protease (PL^pro; domain of nsp3); purchased Anaspec (Fremont, USA) AS-72263; conditions: read-out: SARS-CoV-2 PLpro inhibition % enzyme inhibition (20 µM)
SARS-CoV-2 PLpro [2] = molecular target: T1, SARS-CoV-2 PLpro; assay: PL^pro fluorogenic peptide cleavage assay (substrate Z-RLRGG-AMC); format: biochemical; parameters: papain-like protease (PL^pro; domain of nsp3); His; purchased BPS Biosciences BPS-100735-1; conditions: for inhibition at 20 µM: read-out: SARS-CoV-2 PL^pro enzyme inhibition (%) 20 μM; for inhibition at 100 µM: read-out: SARS-CoV-2 PL^pro enzyme inhibition (%) 100 μM
M^pro = M^pro (Severe acute respiratory syndrome coronavirus 2, UniProt P0DTD1); format: binding; conditions: 2 μM protein, 50 μM ligand
[3] = Cytotoxicity in Calu-3 cells; conditions: human
[4] = Severe acute respiratory syndrome coronavirus 2, Calu-3 cells, MOI 0.01, 48 h postinfection, read-out: Anti-SARS-CoV-2 activity IC50

Question: With CC(C)=CCc1c(-c2ccc(O)cc2O)oc2c3c(cc(O)c2c1=O)OC(C)(C)C=C3 [Compound 23, morusin] as the compound, how does the IC50 (SARS-CoV-2; [4]) read?
Answer: 24.9 µM

Question: And the CC50 (in vitro)?
Answer: 25.2 µM

Question: What about the IC50 (SARS-CoV-2 M^pro; read-out: SARS-CoV-2 M^pro IC50) of the same compound?
Answer: 33.5 µM

Question: Which inhibition at 20 µM (SARS-CoV-2 PLpro [1]) does the source give for COc1ccc(S(=O)(=O)NCc2ccc(C(=O)NCc3ccccc3)cc2)cc1 [Compound 44] here?
Answer: 18.5 ± 16.6%

Question: And the inhibition at 20 µM (SARS-CoV-2 PLpro [2])?
Answer: 6.4 ± 4.2%

Question: What about the inhibition at 100 µM (SARS-CoV-2 PLpro [2]) of the same compound?
Answer: 1.5 ± 1.2%

Question: For COc1cc(O)c(C(=O)/C=C/c2ccccc2)c(O)c1[C@H]1C[C@H](c2ccccc2)Oc2c(OC)c(O)cc(OC)c21 [Compound 26, sarcandrone B], which inhibition at 20 µM (SARS-CoV-2 M^pro) is on record?
Answer: 1.2 ± 2.5%

Question: And the inhibition at 100 µM (SARS-CoV-2 M^pro)?
Answer: 7.5 ± 2.5%

Question: What does the source list for COc1cc(CC(CO)Oc2ccc(CCCO)cc2OC)ccc1O (stereo not shown) [Compound 47]?
Answer: inhibition at 20 µM (SARS-CoV-2 PLpro [1]): -55.8 ± 32.4%; inhibition at 20 µM (SARS-CoV-2 PLpro [2]): 8.8 ± 5.6%; inhibition at 100 µM (SARS-CoV-2 PLpro [2]): 0.5 ± 0.8%

Question: What does the source list for O=C(CC(c1ccccc1)c1ccccc1)NCCCc1ccccc1 [Compound 40]?
Answer: inhibition at 20 µM (SARS-CoV-2 PLpro [1]): 41.5 ± 16.5%; inhibition at 20 µM (SARS-CoV-2 PLpro [2]): 1.6 ± 8.8%; inhibition at 100 µM (SARS-CoV-2 PLpro [2]): 5 ± 2.6%

Question: For O=C(CCCN1C(=O)c2ccccc2N2C(=O)c3ccccc3C12)NCCc1cnc[nH]1 (stereo not shown) [Compound 28], which inhibition at 20 µM (SARS-CoV-2 M^pro) is on record?
Answer: 14.1 ± 5.1%

Question: What about the inhibition at 100 µM (SARS-CoV-2 M^pro) of the same compound?
Answer: 59.7 ± 1%

Question: For COc1ccc(CNC(=O)c2cn(CCC(C)C)c(=O)c3ccccc23)cc1OC [Compound 48], which inhibition at 20 µM (SARS-CoV-2 PLpro [1]) is on record?
Answer: 32 ± 4.2%

Question: And the inhibition at 20 µM (SARS-CoV-2 PLpro [2])?
Answer: 8.2 ± 2.3%

Question: And the inhibition at 100 µM (SARS-CoV-2 PLpro [2])?
Answer: 0.3 ± 0.5%

Question: Which IC50 (SARS-CoV-2; Severe acute respiratory syndrome coronavirus 2, Calu-3, 48 h, read-out: Anti-SARS-CoV-2 activity IC50 (μM)) does the source give for COc1cc(C2Oc3cc([C@H]4Oc5cc(O)cc(O)c5C(=O)[C@@H]4O)ccc3OC2CO)ccc1O (stereo partly shown) [Compound 34, silibinin] here?
Answer: > 100 µM

Question: What about the inhibition at 20 µM (SARS-CoV-2 PLpro [1]) of the same compound?
Answer: 50.3 ± 14.3%

Question: What about the CC50 (in vitro) of the same compound?
Answer: > 100 µM

Question: And the inhibition at 20 µM (SARS-CoV-2 PLpro [2])?
Answer: 6.5 ± 3.6%

Question: Which inhibition at 20 µM (SARS-CoV-2 PLpro [1]) does the source give for CN1[C@@H](CC(=O)c2ccccc2)CCC[C@H]1C[C@H](O)c1ccccc1 [Compound 32, lobelin] here?
Answer: 26.6 ± 11%

Question: What about the inhibition at 20 µM (SARS-CoV-2 PLpro [2]) of the same compound?
Answer: 3.7 ± 2.6%

Question: What does the source list for COc1ccc(CNC(=O)c2ccc(Cn3c(=O)c(C)nc4ccccc43)cc2)cc1 [Compound 46]?
Answer: inhibition at 20 µM (SARS-CoV-2 PLpro [2]): 12.7 ± 6.9%; inhibition at 100 µM (SARS-CoV-2 PLpro [2]): 14 ± 3.4%

Question: For CC(C)=CCC/C(C)=C/Cc1c(O)ccc([C@@H]2CC(=O)c3c(O)cc(O)cc3O2)c1O [Compound 11, sanggenol A], which inhibition at 20 µM (SARS-CoV-2 M^pro) is on record?
Answer: 31.9%

Question: And the inhibition at 100 µM (SARS-CoV-2 M^pro)?
Answer: 98.3 ± 2.4%

Question: Which results are given for COc1cc([C@@H]2Oc3c(O)cc([C@H]4Oc5cc(O)cc(O)c5C(=O)[C@@H]4O)cc3[C@H]2CO)ccc1O [Compound 33, silicristin]?
Answer: inhibition at 20 µM (SARS-CoV-2 PLpro [2]): 3.4 ± 7.8%; inhibition at 100 µM (SARS-CoV-2 PLpro [2]): 19.8 ± 2%

Question: For Cn1c(=O)c2c(nc(SCC(=O)Nc3ccc4c(c3)OCO4)n2Cc2cccc(Cl)c2)n(C)c1=O [Compound 29], which inhibition at 100 µM (SARS-CoV-2 M^pro) is on record?
Answer: 7.3 ± 10.2%

Question: Which inhibition at 20 µM (SARS-CoV-2 PLpro [1]) does the source give for COCCN1C(=O)C(O)=C(C(=O)c2ccc(OC)c(C)c2)C1c1ccc(O)cc1 (stereo not shown) [Compound 39] here?
Answer: 26 ± 34.7%

Question: And the inhibition at 20 µM (SARS-CoV-2 PLpro [2])?
Answer: 10 ± 5.4%

Question: What about the inhibition at 100 µM (SARS-CoV-2 PLpro [2]) of the same compound?
Answer: 42 ± 1.3%

Question: With COc1ccc(C(=O)N(CCN(Cc2ccccc2)C(=O)c2ccc(OC)cc2)Cc2ccccc2)cc1 [Compound 27] as the compound, how does the inhibition at 20 µM (SARS-CoV-2 M^pro) read?
Answer: 4.8 ± 4%

Question: What about the inhibition at 100 µM (SARS-CoV-2 M^pro) of the same compound?
Answer: 28.2 ± 8.3%

Question: Which inhibition at 20 µM (SARS-CoV-2 M^pro) does the source give for C=C(C)[C@H](CC=C(C)C)Cc1c(O)cc(OC)c2c1O[C@H](c1ccc(O)cc1O)CC2=O [Compound 21, kurarinone] here?
Answer: 30.2%

Question: And the inhibition at 100 µM (SARS-CoV-2 M^pro)?
Answer: 99.2 ± 2.5%

Question: With CC(C)=CCC12Oc3cc(O)c([C@@H]4C=C(C)C[C@H](c5ccc(O)cc5O)[C@H]4C(=O)c4ccc(O)cc4O)c(O)c3C(=O)C1(O)Oc1cc(O)ccc12 (stereo partly shown) [Compound 14, sanggenon D] as the compound, how does the IC50 (SARS-CoV-2; [4]) read?
Answer: 18.5 µM

Question: And the STD signals (M^pro)?
Answer: exhibited STD signals

Question: And the CC50 [3]?
Answer: 46.2 µM

Question: And the IC50 (SARS-CoV-2 M^pro; SARS-CoV-2 M^pro IC50 (μM))?
Answer: 13.8 µM and 13.9 µM
